Experiments:
[1] = target: T1, Alpha-1B adrenergic receptor (Homo sapiens, UniProt P35368); test: Binding affinity was tested on human Alpha-1B adrenergic receptor
T1 sequence (P35368 whole entry): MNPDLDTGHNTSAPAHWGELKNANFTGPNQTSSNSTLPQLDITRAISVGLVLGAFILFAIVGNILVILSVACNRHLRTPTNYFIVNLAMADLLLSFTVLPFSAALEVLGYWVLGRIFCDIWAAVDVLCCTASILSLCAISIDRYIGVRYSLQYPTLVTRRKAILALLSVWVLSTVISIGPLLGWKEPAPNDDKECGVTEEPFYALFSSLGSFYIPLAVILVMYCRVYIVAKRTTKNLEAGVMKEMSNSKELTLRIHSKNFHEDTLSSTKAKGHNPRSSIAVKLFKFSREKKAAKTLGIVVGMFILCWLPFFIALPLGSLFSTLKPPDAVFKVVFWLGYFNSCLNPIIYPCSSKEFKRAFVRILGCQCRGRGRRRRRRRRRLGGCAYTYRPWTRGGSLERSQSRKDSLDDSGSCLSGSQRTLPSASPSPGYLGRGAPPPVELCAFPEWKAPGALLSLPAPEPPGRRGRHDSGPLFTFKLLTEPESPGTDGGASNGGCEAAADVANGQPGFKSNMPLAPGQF

[2] = target: T2, 3-oxo-5-alpha-steroid 4-dehydrogenase 1 (Homo sapiens, UniProt P18405); test: Inhibitory concentration was tested on human 5-alpha reductase 1 isozyme
T2 sequence (P18405 whole entry): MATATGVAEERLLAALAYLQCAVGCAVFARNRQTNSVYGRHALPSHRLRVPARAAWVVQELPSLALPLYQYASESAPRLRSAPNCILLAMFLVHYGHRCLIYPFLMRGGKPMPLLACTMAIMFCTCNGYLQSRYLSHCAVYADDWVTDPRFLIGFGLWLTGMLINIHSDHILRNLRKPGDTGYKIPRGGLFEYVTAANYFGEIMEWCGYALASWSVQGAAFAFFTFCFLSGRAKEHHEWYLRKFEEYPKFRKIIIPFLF

[3] = target: T3, 3-oxo-5-alpha-steroid 4-dehydrogenase 2 (Homo sapiens, UniProt P31213); test: Inhibition of human 5-alpha reductase 2 isozyme.
T3 sequence (P31213 whole entry): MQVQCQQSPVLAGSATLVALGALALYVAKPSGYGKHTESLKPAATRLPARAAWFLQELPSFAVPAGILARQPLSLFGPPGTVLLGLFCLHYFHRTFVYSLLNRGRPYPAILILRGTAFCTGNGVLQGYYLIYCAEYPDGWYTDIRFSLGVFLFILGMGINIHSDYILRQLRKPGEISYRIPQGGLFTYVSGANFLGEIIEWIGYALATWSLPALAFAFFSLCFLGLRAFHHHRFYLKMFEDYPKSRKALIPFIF

[4] = target: T4, Steroid 5-alpha-reductase (Rattus norvegicus, UniProt P24008+P31214); test: Inhibition of rat 5-alpha reductase isozyme.; assay type: protein assay
T4 sequence (P24008 whole entry): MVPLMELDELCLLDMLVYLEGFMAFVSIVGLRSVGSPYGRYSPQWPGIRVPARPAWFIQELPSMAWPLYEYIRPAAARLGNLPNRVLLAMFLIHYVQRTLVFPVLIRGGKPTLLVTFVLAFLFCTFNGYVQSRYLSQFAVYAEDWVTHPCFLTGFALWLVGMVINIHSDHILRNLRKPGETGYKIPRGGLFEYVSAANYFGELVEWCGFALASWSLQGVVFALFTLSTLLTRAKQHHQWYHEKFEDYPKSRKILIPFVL
T4 sequence (P31214 whole entry): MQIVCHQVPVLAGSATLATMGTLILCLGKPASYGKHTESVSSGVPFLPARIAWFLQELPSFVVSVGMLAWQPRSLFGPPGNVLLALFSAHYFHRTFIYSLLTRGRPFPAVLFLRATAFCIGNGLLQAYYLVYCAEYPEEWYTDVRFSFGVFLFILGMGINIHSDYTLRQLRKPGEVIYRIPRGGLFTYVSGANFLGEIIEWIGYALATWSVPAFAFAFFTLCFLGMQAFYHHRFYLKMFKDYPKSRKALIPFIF

[5] = target: T5, Alpha-1A adrenergic receptor (Homo sapiens, UniProt P35348); test: Binding affinity was tested on human Alpha-1A adrenergic receptor
T5 sequence (P35348 whole entry): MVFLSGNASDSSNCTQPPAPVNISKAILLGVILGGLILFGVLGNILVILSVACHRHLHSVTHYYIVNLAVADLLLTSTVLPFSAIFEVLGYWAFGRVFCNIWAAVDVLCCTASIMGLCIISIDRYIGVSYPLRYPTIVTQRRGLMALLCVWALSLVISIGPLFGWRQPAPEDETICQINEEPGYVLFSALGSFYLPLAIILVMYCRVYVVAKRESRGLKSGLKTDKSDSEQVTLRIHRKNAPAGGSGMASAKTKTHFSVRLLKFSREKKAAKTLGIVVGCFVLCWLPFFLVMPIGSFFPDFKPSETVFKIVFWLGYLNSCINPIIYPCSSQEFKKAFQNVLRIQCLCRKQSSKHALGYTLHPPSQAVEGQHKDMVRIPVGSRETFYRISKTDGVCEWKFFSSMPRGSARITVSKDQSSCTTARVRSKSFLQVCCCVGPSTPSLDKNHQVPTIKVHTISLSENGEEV

[6] = target: T6, Alpha-1D adrenergic receptor (Homo sapiens, UniProt P25100); test: Binding affinity was tested on human Alpha-1D adrenergic receptor
T6 sequence (P25100 whole entry): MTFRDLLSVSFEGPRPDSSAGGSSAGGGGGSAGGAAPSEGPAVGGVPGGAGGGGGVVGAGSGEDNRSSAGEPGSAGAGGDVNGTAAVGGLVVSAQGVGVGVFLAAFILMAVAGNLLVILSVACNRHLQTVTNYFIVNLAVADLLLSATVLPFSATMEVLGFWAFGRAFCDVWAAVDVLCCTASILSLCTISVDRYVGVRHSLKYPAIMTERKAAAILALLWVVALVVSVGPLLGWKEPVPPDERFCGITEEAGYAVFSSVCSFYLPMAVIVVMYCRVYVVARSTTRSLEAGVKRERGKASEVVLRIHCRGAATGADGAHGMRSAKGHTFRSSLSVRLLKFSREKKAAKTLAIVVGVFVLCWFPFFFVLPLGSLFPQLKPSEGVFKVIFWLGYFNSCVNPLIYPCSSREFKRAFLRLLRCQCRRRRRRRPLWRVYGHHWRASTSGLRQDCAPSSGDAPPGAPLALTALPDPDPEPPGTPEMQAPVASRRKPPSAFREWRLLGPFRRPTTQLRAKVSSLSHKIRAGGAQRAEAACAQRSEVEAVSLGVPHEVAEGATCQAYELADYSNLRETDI

SMILES	Ki [1]	IC50 [2]	IC50 [3]	Ki [5]	further results
COc1ccccc1N1CCN(CCN2C(=O)CC3(CCCC3)CC2=O)CC1	631 nM	–	–	–	–
CC(C)Cc1ccc(C(Nc2cccc(C(=O)c3cn(CCCC(=O)O)c4ccccc34)c2)c2ccc(CC(C)C)cc2)cc1	–	38 nM	36 nM	–	IC50 [4]: 128 nM
CCC1=NC(CC)=C(C(=O)NCCCN2CCC(c3ccccc3)(c3ccccc3)CC2)C(c2ccc([N+](=O)[O-])cc2)/C1=C(\O)OC (centres undefined)	282 nM	–	–	1.26 nM	Ki [6]: 447 nM
Cc1c(O[C@@H](C)c2ccc(CC(C)C)cc2)ccc(C(=O)Nc2ccccc2OCCCC(=O)O)c1C	–	–	256 nM	–	–
CO/C(O)=C1\C(C)=NC(C)=C(C(=O)NCCCCN2CCC(c3ccccc3)(c3ccccc3)CC2)C1c1ccc([N+](=O)[O-])cc1 (centres undefined)	64.6 nM	–	–	5.89 nM	Ki [6]: 145 nM
CC(=O)CC(=O)NCCCN1CCC(c2ccccc2)(c2ccccc2)CC1	–	–	–	100 nM	–
CC(C)Cc1ccc([C@]2(C)Oc3ccc(C(=O)c4cn(CCCC(=O)O)c5ccccc45)cc3O2)cc1	–	25 nM	23 nM	–	IC50 [4]: 9 nM
C[C@]12C=CC(=O)NC1CCC1C2CC[C@@]2(C)C1CC[C@@H]2C(=O)Nc1ccccc1 (some centres undefined)	–	20 nM	< 0.1 nM	–	–
CC(C)CCCC(C)[C@H]1CCC2C3CCC4N(C)C(=O)CC[C@]4(C)C3CC[C@@]21C (some centres undefined)	–	1.7 nM	218 nM	–	–
Cc1c(C(=O)c2ccc3c(c2)OC(c2ccc(Cl)cc2)(c2ccc(Cl)cc2)O3)c2ccccc2n1CCCC(=O)O	–	10 nM	6300 nM	–	IC50 [4]: 588 nM
CC(C)CCCC(C)[C@H]1CCC2C3CC=C4NC(=O)CC[C@]4(C)C3CC[C@@]21C (some centres undefined)	–	19.1 nM	–	–	–
CCOc1ccccc1OCCN[C@H](C)Cc1ccc(OC)c(S(N)(=O)=O)c1 (stereo in doubt; form 2) [TAMSULOSIN]	1.26 nM	–	–	–	–
CN(C(=O)[C@H]1CCC2C3CCC4NC(=O)C=C[C@]4(C)C3CC[C@@]21C)c1ccccc1 (some centres undefined)	–	350 nM	0.2 nM	–	–
CC(C)Cc1ccc([C@H](C)Oc2ccc(C(=O)c3cn(CCCC(=O)O)c4ccccc34)cc2)cc1	–	40 nM	4 nM	–	IC50 [4]: 1 nM
CCOc1ccccc1OCCN[C@H](C)Cc1ccc(OC)c(S(N)(=O)=O)c1 (stereo in doubt; form 3) [TAMSULOSIN]	100 nM	–	–	–	Ki [6]: 7.94 nM
CC(C)CCCC(C)[C@H]1CCC2C3C(CC[C@@]21C)[C@@]1(C)CCC(=O)N(C)C1C[C@@H]3c1ccccc1 (some centres undefined)	–	134 nM	428 nM	–	–
CCN(CC)C(=O)[C@H]1CC[C@H]2[C@@H]3CC[C@H]4N(C)C(=O)CC[C@]4(C)[C@H]3CC[C@]12C	–	1.7 nM	1.9 nM	–	IC50 [4]: 9.5 nM

SMILES	Ki [1]	IC50 [2]	IC50 [3]	Ki [5]	further results
COc1cccc(OC)c1OCCNCC1COc2ccccc2O1 (centres undefined)	–	–	–	0.158 nM	–
C[C@]12C=CC(=O)NC1CCC1C2CC[C@@]2(C)C1CC[C@@H]2C(=O)Nc1ccccc1C(F)(F)F (some centres undefined)	–	5.6 nM	< 0.1 nM	–	–
C[C@]12C=CC(=O)NC1CCC1C2CC[C@@]2(C)C1CC[C@@H]2C(=O)N(c1ccccc1)c1ccccc1 (some centres undefined)	–	> 1000 nM	25.2 nM	–	–
C[C@]12C=CC(=O)NC1CCC1C2CC[C@@]2(C)C1CC[C@@H]2C(=O)Nc1cccc(-c2ccccc2)c1 (some centres undefined)	–	14 nM	< 0.1 nM	–	–
C[C@]12C=CC(=O)NC1CCC1C2CC[C@@]2(C)C1CC[C@@H]2C(=O)Nc1cc(C(F)(F)F)ccc1C(F)(F)F (some centres undefined)	–	2.4 nM	0.5 nM	–	–
COc1c(C)c(C)c(O)c(C)c1CN(C)CCOc1cc(C)c(O)cc1C(C)C	1.26 nM	–	–	0.398 nM	Ki [6]: 1.26 nM
CCN1C(=O)CC[C@]2(C)C3CC[C@@]4(C)C(CC[C@@H]4C(C)CCCC(C)C)C3[C@@H](C)CC12 (some centres undefined)	–	3.3 nM	1390 nM	–	–
CCC1=C(C(=O)NCCCN2CCC(c3ccccc3)(c3ccccc3)CC2)C(c2ccc([N+](=O)[O-])cc2)/C(=C(\O)OC)C(C)=N1 (centres undefined)	148 nM	–	–	0.661 nM	Ki [6]: 204 nM
COc1ccc(CCNCC2CCc3ccccc3C2)cc1 (centres undefined)	39.8 nM	–	–	3.98 nM	Ki [6]: 158 nM
O=C(O)c1ccc2c(c1)CCc1cc(Br)ccc1-2	–	26 nM	10000 nM	–	–
C[C@]12C=CC(=O)NC1CCC1C2CC[C@@]2(C)C1CC[C@@H]2C(=O)Nc1cccc2ccccc12 (some centres undefined)	–	8.1 nM	0.2 nM	–	–
CN1C(=O)CC[C@]2(C)c3ccc(Cl)cc3CCC12 (some centres undefined)	–	17 nM	–	–	–
COc1cc2nc(N3CCN(C(=O)c4ccco4)[C@H]4CCCC[C@H]43)nc(N)c2cc1OC [CYCLAZOSIN]	–	–	–	25.1 nM	–
C[C@H](Cc1cc2c(c(C(N)=O)c1)N(CCCO)CC2)NCCOc1ccccc1OCC(F)(F)F [SILODOSIN]	20 nM	–	–	0.0398 nM	Ki [6]: 2 nM
COc1cc2nc(N(C)CCCNC(=O)C3CCCO3)nc(N)c2cc1OC (centres undefined) [ALFUZOSIN]	10 nM	–	–	–	–
CO/C(O)=C1\C(C)=NC(C)=C(C(=O)NCCCN2CCC(c3ccccc3)(c3ccccc3)CC2)C1c1ccc(OC(C)C)cc1 (centres undefined)	174 nM	–	–	69.2 nM	Ki [6]: 891 nM
